These results are taken from patent US12077508B2, “Inhibitors of the Notch transcriptional activation complex kinase (“NACK”) and methods for use of the same” (UNIVERSITY OF MIAMI, priority 2018, dated 2024).

For one experiment, the system named is HC11/N1ICD spheres. The experiment can be described thus: Tumor sphere formation assay in HC11/N1ICD. Format: cell-based, mouse. The text has this:
To further explore the effect of NACK inhibitors targeting Notch pathway, ectopic expression of Notch in HC11 mammary epithelial cells was constructed, as HC11 cells have little to no endogenous Notch activity. Moreover, HC11 cells are insensitive to either DAPT or Z271-0326 treatment as shown in previous colony formation assay (FIG. 5B). See Weaver et al., Cancer Research 74, 4741-4751 (2014). […] Therefore, transformation of HC11 cells by Notch now renders these cells dependent on Notch activity and sensitive to inhibition of NACK by Z271-0326.
In order to assess the effect of hit to lead compounds on the proliferation of stem cell like population of Notch/NACK dependent cells, the primary tumor spheres were treated with NACK inhibitor and allow the cells to be propagated as secondary cultures. To obtain tumor spheres, cells were cultured in DMEM/F12 with 2% B-27 serum-free supplement (17604-044; Invitrogen), 20 ng/mL epidermal growth factor (EGF; PHG0311L; Invitrogen), and 20 ng/mL basic fibroblastic growth factor (bFGF; PHG0266; Invitrogen) for 14 days. Resulting tumor spheres were examined and counted under the microscope. Furthermore, the tumor spheres were collected for further RT-qPCR analysis to test the effect of hit to lead compounds on the stem like target genes.

Another experiment deals with T1, NACK (Mus musculus, UniProt Q571I4).
T1 sequence (Q571I4 1-1373): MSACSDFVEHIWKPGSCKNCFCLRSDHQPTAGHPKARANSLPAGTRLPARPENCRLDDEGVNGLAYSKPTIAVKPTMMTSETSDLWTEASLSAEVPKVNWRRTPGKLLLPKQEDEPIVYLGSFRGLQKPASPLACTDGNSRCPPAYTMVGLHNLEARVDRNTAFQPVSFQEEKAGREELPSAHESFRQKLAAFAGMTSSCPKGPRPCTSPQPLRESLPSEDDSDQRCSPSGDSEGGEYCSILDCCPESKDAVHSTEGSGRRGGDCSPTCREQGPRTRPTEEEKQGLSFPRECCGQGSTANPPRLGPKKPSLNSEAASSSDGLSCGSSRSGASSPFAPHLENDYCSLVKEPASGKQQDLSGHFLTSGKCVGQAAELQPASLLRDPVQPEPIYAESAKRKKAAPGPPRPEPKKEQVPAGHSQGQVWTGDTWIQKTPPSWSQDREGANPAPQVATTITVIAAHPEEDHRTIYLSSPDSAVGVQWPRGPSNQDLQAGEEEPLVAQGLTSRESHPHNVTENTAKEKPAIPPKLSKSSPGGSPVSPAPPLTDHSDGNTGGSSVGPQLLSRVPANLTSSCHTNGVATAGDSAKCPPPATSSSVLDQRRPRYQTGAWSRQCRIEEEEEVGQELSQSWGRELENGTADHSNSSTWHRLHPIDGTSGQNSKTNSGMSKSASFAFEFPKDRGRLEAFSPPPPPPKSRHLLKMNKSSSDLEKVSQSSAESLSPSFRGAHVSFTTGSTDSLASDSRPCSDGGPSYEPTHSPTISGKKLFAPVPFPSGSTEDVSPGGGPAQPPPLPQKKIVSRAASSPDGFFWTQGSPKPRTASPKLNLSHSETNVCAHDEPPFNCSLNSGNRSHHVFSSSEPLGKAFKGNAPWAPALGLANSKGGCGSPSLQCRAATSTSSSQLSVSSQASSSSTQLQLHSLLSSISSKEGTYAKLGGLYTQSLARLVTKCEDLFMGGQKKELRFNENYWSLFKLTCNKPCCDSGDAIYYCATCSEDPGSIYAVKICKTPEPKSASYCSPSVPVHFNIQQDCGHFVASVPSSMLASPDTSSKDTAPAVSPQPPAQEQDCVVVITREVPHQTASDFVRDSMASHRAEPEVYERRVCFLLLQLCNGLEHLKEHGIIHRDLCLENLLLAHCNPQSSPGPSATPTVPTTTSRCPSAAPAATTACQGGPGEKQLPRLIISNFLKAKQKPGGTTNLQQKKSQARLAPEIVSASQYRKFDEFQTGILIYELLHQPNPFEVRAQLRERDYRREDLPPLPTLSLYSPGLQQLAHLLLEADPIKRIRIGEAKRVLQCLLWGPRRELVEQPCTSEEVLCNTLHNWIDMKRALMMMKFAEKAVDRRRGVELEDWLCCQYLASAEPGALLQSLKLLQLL
The experiment can be described thus: Surface plasmon resonance (SPR) binding to GST tagged NACK. The settings on record: equilibrium approach, 1:1 binding model; 25° C.; FIG. 10A; read-out: KD. How it is done: The interaction between inhibitor Z271-0326 and target NACK was characterized using surface plasmon resonance (SPR). For this purpose, GST tagged NACK was captured by a GST antibody that was previously immobilized onto the surface of the chip through standard amide coupling. The dissociation constants associated with binding of the compounds to NACK was determined using the equilibrium approach, which consists of plotting the equilibrium response (Req) as a function of concentration of the compound and fitting the data to a 1:1 binding model.
A GST capture kit (GE Healthcare) were utilized to covalently immobilize an anti-GST antibody, provided in the kit, to the sensor chip surface (CM5 chip, GE Healthcare) by following the manufacturer's instructions. Capture were performed by injecting GST-NACK (1 μg/μL) over the immobilized anti-GST antibody in Hepes buffer (10 mM Hepes, pH 7.5, 150 mM NaCl, 3 mM EDTA, 0.0005% NP-40) for 7 min at 10 μL/min. A reference flow cell was prepared by capturing GST following the procedure described above. […] Experiments were performed on a Biacore T200 instrument (GE Healthcare) at 25° C. Small molecule inhibitors binding to NACK were performed in 50 mM Tris buffer, pH 7.5, containing 150 mM NaCl, 10 mM MgCl2 and 5% DMSO (running buffer). The SPR signal arising from the sample was corrected for its respective control containing DMSO. Data visualization and analysis was performed using Biacore T200 software (GE Healthcare) and Origin 8.0 (OriginLab).

For orientation: Kd means the equilibrium constant for the complex coming apart. Turning to `CCN(CC)C(=O)c1cnn2ccc(C3CCN(S(=O)(=O)c4ccc(NC(C)=O)cc4)CC3)cc12` [Compound Z271-0326, 5-(1-((4-acetamidophenyl)sulfonyl)piperidin-4-yl)-N,N-diethylpyrazolo[1,5-a]pyridine-3-carboxamide], the “HES1 and stem-cell marker gene expression (ALDH1A1, SNAIL1, TWIST1)” value with HC11/N1ICD spheres (HC11/N1ICD spheres, FIG. 7D) is recorded as “causes a decrease in HES1 gene expression as well as several other stem-cell marker genes”. Further, the secondary sphere formation entry in the experiment with HC11/N1ICD spheres (HC11/N1ICD, FIG. 7C) is on record as “inhibits the ability of HC11/N1ICD spheres to form secondary spheres”. At NACK, the Kd came out at 890 ± 70 nM.
